# Tests used:
# mice = assay: AT: Single Dose Toxicity Pretest; type: in vivo, mouse (male Slc:ICR)
# Protocol: AT: Single Dose Toxicity Pretest
# Male Slc:ICR mice (5-week-old) were used. Each group has 3 to 5 mice and each mouse was fasted, but allowed free access to water, for 4 to 5 hours from 9 a.m. in the test day. Then, 2,000 mg/10 ml/kg of the sample compound dissolved or suspended in an aqueous solution of 0.5% sodium carboxymethylcellulose were orally administered thereto. To a control, only the vehicle was administered. […] The body weight was measured before and after the fasting as well as at the same time everyday. The dead animals were immediately subjected to autopsy and their organs were observed macroscopically. Also, the living animals were sacrificed with ether or carbon dioxide one week after the administration and then their organs were observed macroscopically.
# The toxicity at the single dose of 2,000 mg/kg of the sample compound was expressed as being classified into 5 levels.
# 5: Mortality rate is 0%; no toxicity is found at all both in behavior and organs.
# 4: Mortality rate is 0%; while no toxicity is found in organs, slight toxicity is observed in behavior and body weight increase.
# 3: While there is a dead animal (though not all the animals are dead), no toxicity is found in organs.
# 2: Regardless of whether there is a dead animal or not, toxicity is found in organs.
# 1: All the animals are dead.
# [1] = Tests for Safety (PD, AT, MTT), overall statement
# Excerpt: Based on the foregoing effect tests and safety tests, the anti-ulcer effect, antibacterial activity against HP, and safety of the example compounds of the present invention were studied.
smiles,measurement,setting,value
"CC(C)Cc1cc(C(=O)N2CCN(CC(C)C)CC2)ccc1OCc1ccc(Cl)cc1 [Example 17, 1-[4-(4-chlorobenzyloxy)-3-isobutylbenzoyl]-4-isobutylpiperazine]","AT: toxicity at single dose, level","mice; mouse, in vivo",2
"CC(C)Cc1cc(C(=O)N2CCN(CC(C)C)CC2)ccc1OCc1ccc(F)cc1.Cl [Example 22, 1-[4-(4-fluorobenzyloxy)-3-isobutylbenzoyl]-4-isobutylpiperazine hydrochloride]",safety (in words),[1],great improvement in safety
"CC(C)Cc1cc(C(=O)N2CCN(CC(C)C)CC2)ccc1OCc1ccccc1 [Example 16, 1-(4-benzyloxy-3-isobutylbenzoyl)-4-isobutylpiperazine]","AT: toxicity at single dose, level","mice; mouse, in vivo",2
"CC(C)Cc1cc(C(=O)N2CCN(CC(C)C)CC2)ccc1OCc1ccc(F)cc1 [Example 21, 1-[4-(4-fluorobenzyloxy)-3-isobutylbenzoyl]-4-isobutylpiperazine]",safety (in words),[1],great improvement in safety
"CC(C)Cc1cc(CC(=O)N2CCN(CC(C)C)CC2)ccc1OCc1ccccc1 [Example 15, 1-(4-benzyloxy-3-isobutylphenylacetyl)-4-isobutylpiperazine]","AT: toxicity at single dose, level","mice; mouse, 2,000 mg/kg oral, one week",2

# — patent US5756505A, “N-acylpiperazine derivative, antibacterial drug and anti-ulcer drug” (Shiseido Co., Ltd., priority 1995, dated 1998)
